Reference: patent US20210284668A1, “GOLD (I)-PHOSPHINE 1,2,3-TRIAZOLE DERIVATIVES WITH ANTIBIOTIC PROPERTIES” (Centre National de la Recherche Scientifique, priority 2018, published 2021)
Values joined by “and” are separate entries in the source; they are usually repeats but may differ in a detail not shown here. Identical values can stand only once.

Legend:
S. aureus ST20131365 = assay: MIC by microdilution, S. aureus ST20131365; assay type: cell-based, Staphylococcus aureus; conditions: S. aureus ST20131365 (MecA positive, glycopeptide resistant), in duplicate
Method: (§1) The antibacterial profile of each derivative was evaluated by the standard microdilution method for susceptibility testing on 16 different strains, following the guidelines of CLSI. The selected panel included: • S. aureus ATCC25923 (MecA negative, wild-type) • S. aureus ATCC29213 (MecA negative, wild-type) • S. aureus ATCC700699 (MecA positive, glycopeptide resistant) • S. aureus ST20131365 (MecA positive, glycopeptide resistant) • S. epidermidis ATCC14990 (MecA negative, wild-type) • S. epidermidis ATCC35984 (MecA positive) • S. epidermidis ST20140436 (MecA positive, glycopeptide resistant) • S. epidermidis ST20150446 (MecA positive, glycopeptide resistant) • E. faecalis JH2-2 (wild-type) • E. faecalis UCN41 (VanA positive, glycopeptide resistant) • E. faecalis V583 (VanB positive, glycopeptide resistant) • E. faecium ATCC19434T (wild-type) • E. faecium BM4147 (VanA positive, glycopeptide resistant) • E. faecium AUS0004 (VanB positive, glycopeptide resistant) • E. coli ATCC25922 (wild-type) • Clostridium difficile ATCC9689 (wild-type)
(§2) Both series issued from the SAR study were evaluated for their antibacterial activity on a panel of characterized strains obtained from the French National Reference Centers for Staphylococci (Lyon, Pr. Fréderique Laurent) and for Enterococci (Caen, Pr. Vincent Cattoir), respectively. As shown in the following tables, both series contain very active compounds on multi-resistant Gram-positive bacteria (Minimal Inhibitory Concentrations lower than comparator antibiotic ampicillin). Furthermore, a very important antibacterial effect has been shown too on a strain of Clostridium difficile, a Gram-positive, spore-forming, bacillus responsible for post-antibiotic diarrhoae.
(§3) The antibacterial activity of test compounds was evaluated on a selected panel of Gram-positive (4 Staphylococcus aureus, 4 Staphylococcus epidermidis, 3 Enterococcus faecalis, 3 Enterococcus faecium, 1 Clostridium difficile) and Gram-negative strains (1 Escherichia coli, 1 Klebsiella pneumoniae, 1 Pseudomonas aeruginosa, 1 Acinetacter baumannii) with known features of antibiotic resistance (from wild-type susceptibility to multi-drug resistance). The Minimal Inhibitory Concentration (MIC) of test compounds was determined in duplicate by the microdilution method in 96-well microplates with a final volume of 100 μL per well and Mueller-Hinton broth as the growth medium, as recommended by the CLSI (Clinical and Laboratory Standards Institute, document Mo7-A10, USA).

E. coli ATCC25922 = assay: MIC by microdilution, E. coli ATCC25922; assay type: cell-based, Escherichia coli; conditions: E. coli ATCC25922 (wild-type), in duplicate
Method: as §1, §2, §3

E. faecalis V583 = assay: MIC by microdilution, E. faecalis V583; assay type: cell-based, Enterococcus faecalis; conditions: E. faecalis V583 (VanB positive, glycopeptide resistant), in duplicate
Method: as §1, §2, §3

S. aureus ATCC29213 = assay: MIC by microdilution, S. aureus ATCC29213; assay type: cell-based, Staphylococcus aureus; conditions: S. aureus ATCC29213 (MecA negative, wild-type), Mueller-Hinton broth, in duplicate
Method: as §1, §2, §3

E. faecium ATCC19434T = assay: MIC by microdilution, E. faecium ATCC19434T; assay type: cell-based, Enterococcus faecium; design: unit not given here; conditions: E. faecium ATCC19434T (wild-type), in duplicate
In short: (§4)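 Broth microdilution per CLSI document M07-A10, Mueller-Hinton medium, each MIC run in duplicate. Strains include E. coli ATCC25922 (wild-type), S. epidermidis ATCC35984 (MecA positive) and S. aureus ATCC700699 (MecA positive, glycopeptide resistant), within a mixed panel of susceptible and resistant Gram-positive/Gram-negative bacteria.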

E. faecium AUS0004 = assay: MIC by microdilution, E. faecium AUS0004; assay type: cell-based, Enterococcus faecium; conditions: E. faecium AUS0004 (VanB positive, glycopeptide resistant), in duplicate
Method: as §1, §2, §3

[1] = system: Clostridium difficile ATCC700057; assay: MIC by microdilution, Clostridium difficile; assay type: cell-based; conditions: strain ATCC70057 [sic] (Tables 1-2) / ATCC700057 (Tables 3-10), in duplicate
[2] = system: S. epidermidis ST20150446; assay: MIC by microdilution, S. epidermidis ST20150446; assay type: cell-based, Staphylococcus epidermidis; conditions: S. epidermidis ST20150446 (MecA positive, glycopeptide resistant), in duplicate
Method: as §1, §2, §3

E. faecium BM4147 = assay: MIC by microdilution, E. faecium BM4147; assay type: cell-based, Enterococcus faecium; design: unit not given here; conditions: E. faecium BM4147 (VanA positive, glycopeptide resistant), in duplicate
In short: as §4

S. epidermidis ATCC35984 = assay: MIC by microdilution, S. epidermidis ATCC35984; assay type: cell-based, Staphylococcus epidermidis; conditions: S. epidermidis ATCC35984 (MecA positive), in duplicate
In short: as §4

[3] = system: S. epidermidis ST20140436; assay: MIC by microdilution, S. epidermidis ST20140436; assay type: cell-based, Staphylococcus epidermidis; conditions: S. epidermidis ST20140436 (MecA positive, glycopeptide resistant), in duplicate
Method: as §1, §2, §3

S. aureus ATCC25923 = assay: MIC by microdilution, S. aureus ATCC25923; assay type: cell-based, Staphylococcus aureus; conditions: S. aureus ATCC25923 (MecA negative, wild-type), Mueller-Hinton broth, in duplicate
In short: as §4

E. faecalis UCN41 = assay: MIC by microdilution, E. faecalis UCN41; assay type: cell-based, Enterococcus faecalis; design: unit not given here; conditions: E. faecalis UCN41 (VanA positive, glycopeptide resistant), in duplicate
In short: as §4

S. aureus ATCC700699 = assay: MIC by microdilution, S. aureus ATCC700699; assay type: cell-based, Staphylococcus aureus; design: unit not given here; conditions: S. aureus ATCC700699 (MecA positive, glycopeptide resistant), in duplicate
In short: as §4

[4] = system: panel of Gram-positive and Gram-negative strains; assay: Antibacterial profile on the selected panel of strains; assay type: cell-based; conditions: summary of Tables 1-12
In short: as §4

S. epidermidis ATCC14990 = assay: MIC by microdilution, S. epidermidis ATCC14990; assay type: cell-based, Staphylococcus epidermidis; conditions: S. epidermidis ATCC14990 (MecA negative, wild-type), in duplicate
In short: as §4

E. faecalis JH2-2 = assay: MIC by microdilution, E. faecalis JH2-2; assay type: cell-based, Enterococcus faecalis; design: unit not given here; conditions: E. faecalis JH2-2 (wild-type), in duplicate
In short: as §4

CC1(C)S[C@@H]2[C@H](NC(=O)[C@H](N)c3ccccc3)C(=O)N2[C@H]1C(=O)O [Ampi, ampicillin, reference compound]
Minimal Inhibitory Concentration (MIC) (S. aureus ST20131365): 4 | Minimal Inhibitory Concentration (MIC) (E. coli ATCC25922): 2 | Minimal Inhibitory Concentration (MIC) (E. faecalis V583): 0.5 | Minimal Inhibitory Concentration (MIC) (S. aureus ATCC29213): 0.5 | Minimal Inhibitory Concentration (MIC) (E. faecium ATCC19434T): 0.5 | Minimal Inhibitory Concentration (MIC) (E. faecium AUS0004): >8 | Minimal Inhibitory Concentration (MIC) [1]: 0.5 and 0.5-1 and 0.25 | Minimal Inhibitory Concentration (MIC) [2]: 8 and 4 | Minimal Inhibitory Concentration (MIC) (E. faecium BM4147): 4 and 8 | Minimal Inhibitory Concentration (MIC) (S. epidermidis ATCC35984): >8 | Minimal Inhibitory Concentration (MIC) [3]: 4 and 8

CC[P+](CC)(CC)[Au-][c]1nn[nH]c1CCC(=O)NC(C(=O)NC1C(=O)N2C1SC(C)(C)C2C(=O)O)c1ccccc1 (stereo not shown) [TMB4]
Minimal Inhibitory Concentration (MIC) (S. aureus ST20131365): 0.125 | Minimal Inhibitory Concentration (MIC) (E. coli ATCC25922): >8 | Minimal Inhibitory Concentration (MIC) (E. faecalis V583): 0.5 | Minimal Inhibitory Concentration (MIC) (S. aureus ATCC29213): 0.125 | Minimal Inhibitory Concentration (MIC) (S. aureus ATCC25923): 0.125 | Minimal Inhibitory Concentration (MIC) (E. faecium ATCC19434T): 0.5 | Minimal Inhibitory Concentration (MIC) (E. faecium AUS0004): 0.5 | Minimal Inhibitory Concentration (MIC) [1]: ≤0.06-0.125 | Minimal Inhibitory Concentration (MIC) [2]: 0.125 | Minimal Inhibitory Concentration (MIC) (E. faecalis UCN41): 0.5 | Minimal Inhibitory Concentration (MIC) (E. faecium BM4147): 1 | Minimal Inhibitory Concentration (MIC) (S. epidermidis ATCC35984): ≤0.06 | Minimal Inhibitory Concentration (MIC) [3]: ≤0.06 | Minimal Inhibitory Concentration (MIC) (S. aureus ATCC700699): 0.125 | antimicrobial / antibacterial activity (in words) [4]: have antimicrobial activity | Minimal Inhibitory Concentration (MIC) (S. epidermidis ATCC14990): ≤0.06

CC[P+](CC)(CC)[Au-][c]1nn[nH]c1CCC(=O)O [TMB19]
Minimal Inhibitory Concentration (MIC) (S. aureus ST20131365): 0.125 | Minimal Inhibitory Concentration (MIC) (E. coli ATCC25922): >8 | Minimal Inhibitory Concentration (MIC) (E. faecalis V583): 0.125 and 0.25 | Minimal Inhibitory Concentration (MIC) (S. aureus ATCC29213): 0.125 | Minimal Inhibitory Concentration (MIC) (E. faecium ATCC19434T): 0.125 and 0.25 | Minimal Inhibitory Concentration (MIC) (E. faecium AUS0004): 0.125 | Minimal Inhibitory Concentration (MIC) [1]: ≤0.06 | Minimal Inhibitory Concentration (MIC) [2]: ≤0.06 | Minimal Inhibitory Concentration (MIC) (E. faecalis UCN41): 0.125 and 0.25 | Minimal Inhibitory Concentration (MIC) (E. faecium BM4147): 0.25 | Minimal Inhibitory Concentration (MIC) (S. epidermidis ATCC35984): ≤0.06 | Minimal Inhibitory Concentration (MIC) [3]: ≤0.06 | Minimal Inhibitory Concentration (MIC) (S. aureus ATCC700699): 0.125 and 0.25 | antimicrobial / antibacterial activity (in words) [4]: have antimicrobial activity | Minimal Inhibitory Concentration (MIC) (E. faecalis JH2-2): 0.125 and 0.25 | Minimal Inhibitory Concentration (MIC) (S. epidermidis ATCC14990): ≤0.06
